According to patent US10125098B2, “Therapeutic compounds and methods of use thereof” (GENENTECH, INC., priority 2014, dated 2018):
Structures can show the parent of a compound that is named as a salt. Where two headings read alike, the source gives them in different places.

Tests used:
[1] = target: T1, hNav1.7 (Homo sapiens, UniProt Q15858); test: Tritiated compound binding (LBA) to membranes from cells expressing hNav1.7 and the β1 subunit, competitive binding; details: competitive binding vs 100 pM [3H]compound, 18 h, room temperature, membranes with hNav1.7 and β1 subunit
T1 construct: expressed in transfected cells
T1 sequence (Q15858 1-1977 isoform Q15858-3): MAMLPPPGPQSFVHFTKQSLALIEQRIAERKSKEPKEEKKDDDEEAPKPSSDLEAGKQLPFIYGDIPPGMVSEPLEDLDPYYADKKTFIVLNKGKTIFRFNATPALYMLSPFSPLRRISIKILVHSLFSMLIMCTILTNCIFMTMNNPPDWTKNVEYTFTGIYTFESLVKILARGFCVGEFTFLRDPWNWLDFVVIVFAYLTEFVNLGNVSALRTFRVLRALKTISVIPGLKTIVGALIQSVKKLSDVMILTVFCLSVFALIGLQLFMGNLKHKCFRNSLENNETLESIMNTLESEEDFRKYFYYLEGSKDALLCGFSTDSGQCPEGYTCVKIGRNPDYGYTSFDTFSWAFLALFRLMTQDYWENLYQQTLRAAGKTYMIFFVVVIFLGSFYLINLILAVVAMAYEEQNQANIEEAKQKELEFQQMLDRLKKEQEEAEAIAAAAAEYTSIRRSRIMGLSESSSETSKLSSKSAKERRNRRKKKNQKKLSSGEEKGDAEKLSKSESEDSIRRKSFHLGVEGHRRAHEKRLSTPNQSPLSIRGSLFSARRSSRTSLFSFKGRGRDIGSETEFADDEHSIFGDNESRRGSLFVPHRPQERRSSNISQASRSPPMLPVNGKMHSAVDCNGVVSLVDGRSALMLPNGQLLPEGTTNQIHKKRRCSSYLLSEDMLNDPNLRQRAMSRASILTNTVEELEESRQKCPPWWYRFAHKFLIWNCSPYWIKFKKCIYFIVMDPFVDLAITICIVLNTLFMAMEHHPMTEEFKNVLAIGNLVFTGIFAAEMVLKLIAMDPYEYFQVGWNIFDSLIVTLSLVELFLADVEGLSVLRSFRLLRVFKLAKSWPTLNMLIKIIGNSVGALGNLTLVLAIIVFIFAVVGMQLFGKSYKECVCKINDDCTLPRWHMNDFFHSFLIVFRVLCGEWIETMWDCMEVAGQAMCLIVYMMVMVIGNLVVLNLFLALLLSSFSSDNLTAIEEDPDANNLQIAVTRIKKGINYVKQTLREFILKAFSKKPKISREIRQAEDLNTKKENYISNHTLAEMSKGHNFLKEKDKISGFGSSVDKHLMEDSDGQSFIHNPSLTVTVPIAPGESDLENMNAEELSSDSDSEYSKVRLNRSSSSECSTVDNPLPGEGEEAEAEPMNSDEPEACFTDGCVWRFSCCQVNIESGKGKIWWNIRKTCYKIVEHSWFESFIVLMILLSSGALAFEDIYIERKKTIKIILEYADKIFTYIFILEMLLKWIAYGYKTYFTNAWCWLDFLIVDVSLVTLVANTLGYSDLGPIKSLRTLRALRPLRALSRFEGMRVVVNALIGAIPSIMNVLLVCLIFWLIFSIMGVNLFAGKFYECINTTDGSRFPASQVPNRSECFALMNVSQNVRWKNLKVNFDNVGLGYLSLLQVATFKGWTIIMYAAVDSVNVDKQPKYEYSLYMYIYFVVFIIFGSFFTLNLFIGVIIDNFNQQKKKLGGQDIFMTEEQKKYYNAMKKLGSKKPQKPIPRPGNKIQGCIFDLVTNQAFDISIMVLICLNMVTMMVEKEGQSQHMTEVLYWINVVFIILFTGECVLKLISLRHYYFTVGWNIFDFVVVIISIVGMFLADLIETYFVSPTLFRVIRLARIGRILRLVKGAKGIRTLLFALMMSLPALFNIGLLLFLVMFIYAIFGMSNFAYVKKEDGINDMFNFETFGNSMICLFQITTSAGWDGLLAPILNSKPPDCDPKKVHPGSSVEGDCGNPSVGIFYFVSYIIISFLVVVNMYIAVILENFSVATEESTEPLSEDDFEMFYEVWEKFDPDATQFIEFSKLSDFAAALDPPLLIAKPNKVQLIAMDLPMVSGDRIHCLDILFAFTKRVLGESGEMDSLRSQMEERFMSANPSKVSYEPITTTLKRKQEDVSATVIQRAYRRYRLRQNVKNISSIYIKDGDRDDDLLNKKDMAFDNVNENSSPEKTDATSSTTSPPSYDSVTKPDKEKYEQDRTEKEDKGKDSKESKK
T1 sequence (Q07699 19-218 partner): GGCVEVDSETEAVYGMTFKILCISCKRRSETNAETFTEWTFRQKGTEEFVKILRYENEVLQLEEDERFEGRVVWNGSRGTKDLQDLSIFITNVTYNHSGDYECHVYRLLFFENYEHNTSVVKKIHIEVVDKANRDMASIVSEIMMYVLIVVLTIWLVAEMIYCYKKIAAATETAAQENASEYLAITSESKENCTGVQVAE
In short: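 Competitive displacement of 100 pM [3H]compound (tritiated methyl analogue of formula (I)) from hNav1.7/β1 membranes, 18 h at room temperature in NaCl/Tris pH 7.4 buffer containing 0.01% BSA. 1 μM unlabeled compound set non-specific binding. Bound label quantified by scintillation after filtration; 4-parameter fit gave IC50.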

[2] = target: T2, NaV1.5 (Homo sapiens, UniProt Q14524); test: Patch voltage clamp electrophysiology assay (EP), NaV1.5; format: cell-based
T2 construct: permanently transfected with an expression vector containing the full-length cDNA coding for the desired human sodium channel α-subunit; expressed in transfected cells; host or cells: HEK-293
T2 sequence (Q14524 whole entry): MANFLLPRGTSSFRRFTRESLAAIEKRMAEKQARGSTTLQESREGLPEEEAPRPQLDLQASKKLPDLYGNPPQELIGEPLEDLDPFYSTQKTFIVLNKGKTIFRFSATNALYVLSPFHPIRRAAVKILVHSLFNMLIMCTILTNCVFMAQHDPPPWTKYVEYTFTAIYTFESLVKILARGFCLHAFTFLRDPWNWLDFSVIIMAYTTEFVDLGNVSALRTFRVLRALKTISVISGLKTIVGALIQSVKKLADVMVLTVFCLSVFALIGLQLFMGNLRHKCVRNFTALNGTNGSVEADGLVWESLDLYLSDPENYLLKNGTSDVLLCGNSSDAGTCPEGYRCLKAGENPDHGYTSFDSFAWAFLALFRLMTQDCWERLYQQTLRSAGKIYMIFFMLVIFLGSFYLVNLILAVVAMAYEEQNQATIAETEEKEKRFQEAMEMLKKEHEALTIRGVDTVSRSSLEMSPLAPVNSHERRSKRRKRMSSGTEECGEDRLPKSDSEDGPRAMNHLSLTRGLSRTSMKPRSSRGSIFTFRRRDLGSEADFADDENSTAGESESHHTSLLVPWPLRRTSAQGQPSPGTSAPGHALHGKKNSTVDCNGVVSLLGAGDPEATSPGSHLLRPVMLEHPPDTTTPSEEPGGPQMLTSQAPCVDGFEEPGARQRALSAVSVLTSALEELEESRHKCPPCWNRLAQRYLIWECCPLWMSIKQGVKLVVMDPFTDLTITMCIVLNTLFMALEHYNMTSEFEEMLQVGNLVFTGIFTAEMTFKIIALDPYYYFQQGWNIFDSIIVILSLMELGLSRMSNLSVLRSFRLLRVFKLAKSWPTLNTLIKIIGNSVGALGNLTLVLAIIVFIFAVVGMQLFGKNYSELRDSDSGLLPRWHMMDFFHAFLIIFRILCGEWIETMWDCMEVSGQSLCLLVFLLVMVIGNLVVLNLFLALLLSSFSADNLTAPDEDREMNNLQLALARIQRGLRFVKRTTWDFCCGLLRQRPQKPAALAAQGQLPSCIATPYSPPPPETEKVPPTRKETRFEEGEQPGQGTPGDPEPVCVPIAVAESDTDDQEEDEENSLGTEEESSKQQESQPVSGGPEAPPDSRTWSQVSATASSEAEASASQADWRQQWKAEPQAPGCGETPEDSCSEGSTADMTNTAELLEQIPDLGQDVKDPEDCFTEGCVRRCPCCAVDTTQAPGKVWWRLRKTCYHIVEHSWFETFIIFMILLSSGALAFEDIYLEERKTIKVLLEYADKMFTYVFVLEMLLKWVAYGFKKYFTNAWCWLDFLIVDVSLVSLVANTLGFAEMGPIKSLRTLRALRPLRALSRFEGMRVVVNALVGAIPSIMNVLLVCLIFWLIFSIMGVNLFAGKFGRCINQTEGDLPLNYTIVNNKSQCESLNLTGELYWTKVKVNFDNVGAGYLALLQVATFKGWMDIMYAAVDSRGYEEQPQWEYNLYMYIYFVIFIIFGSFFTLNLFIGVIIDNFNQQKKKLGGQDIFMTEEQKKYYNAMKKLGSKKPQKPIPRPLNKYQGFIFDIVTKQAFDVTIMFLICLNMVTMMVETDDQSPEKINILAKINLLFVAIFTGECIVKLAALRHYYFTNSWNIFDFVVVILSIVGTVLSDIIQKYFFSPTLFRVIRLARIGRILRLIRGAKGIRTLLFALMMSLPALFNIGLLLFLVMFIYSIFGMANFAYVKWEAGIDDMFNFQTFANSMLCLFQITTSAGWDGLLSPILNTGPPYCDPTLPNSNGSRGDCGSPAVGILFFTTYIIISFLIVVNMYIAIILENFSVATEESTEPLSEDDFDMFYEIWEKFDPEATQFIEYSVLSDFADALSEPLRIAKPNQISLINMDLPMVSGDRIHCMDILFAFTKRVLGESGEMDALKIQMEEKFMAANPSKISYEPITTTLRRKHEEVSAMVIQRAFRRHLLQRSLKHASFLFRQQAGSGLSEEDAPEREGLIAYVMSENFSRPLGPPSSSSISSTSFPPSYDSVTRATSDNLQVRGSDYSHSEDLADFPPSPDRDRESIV
In short: (§1)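 Percent block is the drop in sodium current after compound wash-on, measured by a test pulse following 20 ms at −150 mV from a −60 mV inactivating holding potential.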

[3] = target: T3, human NaV1.7 (Homo sapiens, UniProt Q15858); test: Patch voltage clamp electrophysiology assay (EP), NaV1.7; format: cell-based; details: HEK-293 cells stably expressing NaV1.7 with β1 subunit; whole-cell patch clamp, membrane potential −60 mV (inactivated state)
T3 construct: permanently transfected with an expression vector containing the full-length cDNA coding for the desired human sodium channel α-subunit; expressed in transfected cells; host or cells: HEK-293
T3 sequence (Q15858 1-1977 isoform Q15858-3): as the sequence (Q15858 1-1977 isoform Q15858-3) above
T3 sequence (Q07699 19-218 partner): as the sequence (Q07699 19-218 partner) above
In short: as §1

[4] = HEK-293 cells stably expressing NaV1.5 with β1 subunit, whole-cell patch clamp, membrane potential −60 mV (inactivated state), read-out: Nav1.5
[5] = human, HEK-293 cells stably expressing human NaV1.5 with β1 subunit, pH 7.4, HEK-293 cells stably expressing NaV1.5 with β1 subunit, whole-cell patch clamp, membrane potential −60 mV (inactivated state)

Compound	IC50 [1] [nM]	IC50 [3] [nM]	IC50 [2, 4] [nM]	IC50 [2, 5] [nM]	IC50 [2] [nM]
O=C(c1cc(C2CC2)c(OCC23CC4CC(CC(C4)C2)C3)cc1F)N1C[C@H](F)C[C@H]1C(O)(C(F)(F)F)C(F)(F)F [Example 201, (4-(adamantan-1-ylmethoxy)-5-cyclopropyl-2-fluorophenyl)((2S,4R)-4-fluoro-2-(1,1,1,3,3,3-hexafluoro-2-hydroxypropan-2-yl)pyrrolidin-1-yl)methanone]	≥ 10000	13000	24000		
O=C(O)[C@@H]1C[C@@H](F)CN1C(=O)c1cc(C2CC2)c(OCC2(F)CCN(Cc3cc(C(F)(F)F)cc(Cl)c3F)CC2)cc1F [Example 102, (2S,4R)-1-(4-((1-(3-chloro-2-fluoro-5-(trifluoromethyl)benzyl)-4-fluoropiperidin-4-yl)methoxy)-5-cyclopropyl-2-fluorobenzoyl)-4-fluoropyrrolidine-2-carboxylic acid]	65	330	23000		
CC[C@H](NC(=O)c1cc(C2CC2)c(OCC23CC4CC(CC(C4)C2)C3)cc1F)C(=O)O [Example 87, (S)-2-(4-(adamantan-1-ylmethoxy)-5-cyclopropyl-2-fluorobenzamido)butanoic acid]	56	1300	7100		
O=C(NC(C(=O)O)C1CC1)c1cc(C2CC2)c(COc2cc(Cl)cc(OC(F)(F)F)c2)cc1F (stereo in doubt) [Example 120, (R)-2-(4-((3-chloro-5-(trifluoromethoxy)phenoxy)methyl)-5-cyclopropyl-2-fluorobenzamido)-2-cyclopropylacetic acid]	27	290	14000		
CC(c1cc(Cl)cc(Cl)c1)N1CCC(F)(COc2cc(F)c(C(=O)N3C[C@H](F)C[C@H]3C(=O)O)cc2C2CC2)CC1 (stereo partly drawn) [Example 129, (2S,4R)-1-(5-cyclopropyl-4-((1-(1-(3,5-dichlorophenyl)ethyl)-4-fluoropiperidin-4-yl)methoxy)-2-fluorobenzoyl)-4-fluoropyrrolidine-2-carboxylic acid]	22	160	9400		
O=C(O)[C@@H]1CCCN1C(=O)c1cc(C2CC2)c(OCC2CCN(Cc3cc(F)cc(Cl)c3)CC2)cc1F [Example 190, (S)-1-(4-((1-(3-chloro-5-fluorobenzyl)piperidin-4-yl)methoxy)-5-cyclopropyl-2-fluorobenzoyl)pyrrolidine-2-carboxylic acid]	190	2900		≥ 30000	
COc1ncccc1-c1cc(C(=O)N2CCC[C@H]2C(=O)O)c(F)cc1Oc1cnc(OC(C)C)c(Cl)c1 [Example 179, (S)-1-(4-((5-chloro-6-isopropoxypyridin-3-yl)oxy)-2-fluoro-5-(2-methoxypyridin-3-yl)benzoyl)pyrrolidine-2-carboxylic acid]	400	830		≥ 30000	
C[C@H]1CCN(C(=O)c2cc(C3CC3)c(OCC34CC5CC(CC(C5)C3)C4)cc2F)[C@@H]1C(=O)O [Example 149, (2S,3S)-1-[4-(1-adamantylmethoxy)-5-cyclopropyl-2-fluoro-benzoyl]-3-methyl-pyrrolidine-2-carboxylic acid]	10	300	17000		
O=C(O)[C@@H]1C[C@@H](F)CN1C(=O)c1cc(C2CC2)c(OCC2CCN(Cc3cc(Cl)cc(C(F)(F)F)c3)CC2)cc1F [Example 173, (2S,4R)-1-(4-((1-(3-chloro-5-(trifluoromethyl)benzyl)piperidin-4-yl)methoxy)-5-cyclopropyl-2-fluorobenzoyl)-4-fluoropyrrolidine-2-carboxylic acid]	65	330	23000		
O=C(O)[C@@H]1CC2(CC2)CN1C(=O)c1cc(C2CC2)c(OCC23CC4CC(CC(C4)C2)C3)cc1F [Example 200, (S)-5-(4-(adamantan-1-ylmethoxy)-5-cyclopropyl-2-fluorobenzoyl)-5-azaspiro[2.4]heptane-6-carboxylic acid]	84	790			12000
O=C(O)[C@@H]1CCCN1C(=O)c1cc(C2CC2)c(COc2cc(Cl)cc(Cl)c2)s1 [Example 134, (S)-1-(4-cyclopropyl-5-((3,5-dichlorophenoxy)methyl)thiophene-2-carbonyl)pyrrolidine-2-carboxylic acid]	72	630	7100		
C[C@]1(COc2cc(F)c(C(=O)N3CCC[C@H]3C(=O)O)cc2C2CC2)CCN(c2cc(C(F)(F)F)c(Cl)cn2)C1 [Example 135, (S)-1-(4-(((S)-1-(5-chloro-4-(trifluoromethyl)pyridin-2-yl)-3-methylpyrrolidin-3-yl)methoxy)-5-cyclopropyl-2-fluorobenzoyl)pyrrolidine-2-carboxylic acid]	390	2600		≥ 30000	
C[C@H]1OCN(C(=O)c2cc(C3CC3)c(OCC3CCN(Cc4cc(C(F)(F)F)cc(Cl)c4F)CC3)cc2F)[C@@H]1C(=O)O [Example 227, (4S,5R)-3-(4-((1-(3-chloro-2-fluoro-5-(trifluoromethyl)benzyl)piperidin-4-yl)methoxy)-5-cyclopropyl-2-fluorobenzoyl)-5-methyloxazolidine-4-carboxylic acid]	29	65	16000		
C[C@H]1[C@H](O)CN(C(=O)c2cc(C3CC3)c(OCC34CC5CC(CC(C5)C3)C4)cc2F)[C@@H]1C(=O)O [Example 230, (2S, 3R, 4S)-1-(4-(adamantan-1-ylmethoxy)-5-cyclopropyl-2-fluorobenzoyl)-4-hydroxy-3-methylpyrrolidine-2-carboxylic acid]	21	32	11000		
O=C(O)[C@@H]1CCCN1C(=O)c1cc(C2CC2)c(OCC2CCN(Cc3nc(-c4ccccc4Cl)no3)CC2)cc1F [Example 197, (S)-1-(4-((1-((3-(2-chlorophenyl)-1,2,4-oxadiazol-5-yl)methyl)piperidin-4-yl)methoxy)-5-cyclopropyl-2-fluorobenzoyl)pyrrolidine-2-carboxylic acid trifluoroacetate]	630	3900		≥ 30000	
O=C(O)[C@@H]1[C@H](O)CCN1C(=O)c1cc(C2CC2)c(OCC23CC4CC(CC(C4)C2)C3)cc1F [Example 62, (2S, 3R)-1-(4-((adamantan-1-yl)methoxy)-5-cyclopropyl-2-fluorobenzoyl)-3-hydroxypyrrolidine-2-carboxylic acid]	160	1100	28000		
CC(C)[C@H](NC(=O)c1cc(C2CC2)c(COc2cc(Cl)cc(OC(F)(F)F)c2)cc1F)C(=O)O [Example 183, (S)-2-(4-((3-chloro-5-(trifluoromethoxy)phenoxy)methyl)-5-cyclopropyl-2-fluorobenzamido)-3-methylbutanoic acid]	31	1900	9200		
O=C(O)[C@@H]1C[C@@H](F)CN1C(=O)c1c(F)cc(OCC23CC4CC(CC(C4)C2)C3)cc1C1CC1 [Example 204, (2S,4R)-1-(4-(adamantan-1-ylmethoxy)-2-cyclopropyl-6-fluorobenzoyl)-4-fluoropyrrolidine-2-carboxylic acid]	560	7800	23000		

More lines, main results first:

IC50 [1] [nM]	IC50 [3] [nM]	Compound	IC50 [2, 4] [nM]	IC50 [2, 5] [nM]	IC50 [2] [nM]
310	2400	C[C@]1(COc2cc(F)c(C(=O)N3CCC[C@H]3C(=O)O)cc2C2CC2)CCN(Cc2cc(F)cc(Cl)c2)C1 (single isomer, unassigned) [Example 137b]		≥ 30000	
48	490	O=C(O)[C@@H]1CCCN1C(=O)c1cc(C2CC2)c(OCC2CCN([C@H](c3cc(Cl)cc(Cl)c3)C(F)(F)F)CC2)cc1F (single isomer, unassigned) [Example 123a]	7100		
570	3700	C[C@@]1(COc2cc(F)c(C(=O)N3CCC[C@H]3C(=O)O)cc2C2CC2)CCN(Cc2cc(F)cc(Cl)c2)C1 (single isomer, unassigned) [Example 137a]	15000		
24	330	C[C@@H](c1cc(Cl)cc(Cl)c1)N1CCC(C)(COc2cc(F)c(C(=O)N3C[C@H](F)C[C@H]3C(=O)O)cc2C2CC2)CC1 (single isomer, unassigned) [Example 132a]	17000		
360	2200	C[C@H](c1cc(Cl)cc(Cl)c1)N1CCC[C@H](COc2cc(F)c(C(=O)N3CCC[C@H]3C(=O)O)cc2C2CC2)C1 (single isomer, unassigned) [Example 73a]	12000		
760	3000	C[C@@H]1SCN(C(=O)c2cc(C3CC3)c(OCC34CC5CC(CC(C5)C3)C4)cc2F)[C@H]1C(=O)O [Example 142b, (4S,5S)-3-[4-(1-adamantylmethoxy)-5-cyclopropyl-2-fluoro-benzoyl]-5-methyl-thiazolidine-4-carboxylic acid]	15000		
